Experimental data: US11608309B2 (THE RESEARCH FOUNDATION FOR THE STATE UNIVERSITY OF NEW YORK, priority 2009, dated 2023)
“And” between values parts separate entries of the source, which are not always exact repeats. Equal values may be shown once.

How the values were obtained:
[1] = target: purified human PMN MMP-8 (Homo sapiens (Human), UniProt P22894); experiment: MMP-8 inhibition in vitro, synthetic octapeptide substrate, tripeptide products by HPLC; type: biochemical
[2] = system: neonatal rat ventricular myocytes; experiment: Doxorubicin mediated caspase-3 activity; type: cell-based; conditions: doxorubicin 500 nM, 6 h and 24 h, compounds 10 μM
Protocol: Neonatal rat ventricular myocytes, serum starved for 24 h, were treated with the inhibitors 1 h prior to the addition of 500 nM of doxorubicin (Sigma). At the indicated time points cells were washed with ice-cold phosphate buffered saline and lysed using RIPA buffer (Pierce) containing protease and phosphatase inhibitors (Sigma). Caspase-3 activity in the cell lysates was measured by incubation with 7-amino-4-trifluoromethyl coumarin (Enzo).

[3] = target: IL-1β (Rattus norvegicus (Rat), UniProt Q63264); experiment: Gingiva IL-1β by ELISA in diabetic rats; type: in vivo; conditions: lower oral dose (100 mg/kg), 3 weeks
Protocol: (§1) At the end of the treatment protocol, the rats were sacrificed, blood samples were collected, and whole skin (except over limbs) and gingiva were dissected (the skin, because of ample quantities of tissue were analyzed for each rat separately; the gingiva, because of the tiny amounts that could be harvested per rat, were pooled for each experimental group, as prescribed previously for tetracycline studies (30). In addition, the jaw bones were collected, defleshed, and bone loss around the teeth analyzed morphometrically as described previously (42, 43).

[4] = system: human monocytes; experiment: Cytotoxicity in human monocytes (MTS); type: cell-based
Protocol: Briefly, human peripheral blood monocytes (HMs) were isolated from a leukocyte concentrate by density gradient centrifugation (Lymphoprep) and the isolated HMs cultured (2 h, 37° C.) to remove non-adherant cells. […] After incubation, the proinflammatory cytokines, TNFα, IL-1β, MCP-1 and IL-6 were measured in the conditioned media by ELISA and cytotoxicity was assessed by measuring the absorbance (490 ran) of formazan produced by reduction of MTS. The HMs alone ±0.1-0.5% DMSO produced minimal levels of these pro-inflammatory cytokines. However, addition of 100 ng/ml or 10 μg/ml of LPS both dramatically stimulated cytokine production.

[5] = Diabetic adverse events in rats; type: in vivo, rat; conditions: 1-week oral treatment, n = 6
[6] = system: PC-3 human prostate cancer cells; experiment: MMP-9 in conditioned media of PC-3 cells (gelatin zymography, Western blot); type: cell-based; conditions: 10 μM and 20 μM, 48 hr
Protocol: Compound 1 was evaluated in a cell culture model of cancer. […] After the incubation, aliquots of the conditioned media were assayed for MMP-9 (gelatinase B) by either of two techniques, gelatin zymoyraphy (in the presence of 2 or 10 mMCa^++) and Western blot (both assays used purified MMP-9, 92 kDa gelatinase, as a standard).

[7] = Alveolar bone loss in diabetic rats; type: in vivo, rat; conditions: very high oral dose (500 mg/kg), 3 weeks
Protocol: as §1
Alveolar bone loss (the signature pathologic event in inflammatory periodontal disease) was assessed in the defleshed jaws of the compound 1-treated (TX) and untreated rats. Briefly, little or no difference in bone loss was seen comparing the untreated non-diabetic and untreated diabetic rat jaws (enhanced bone loss has been observed in diabetic rats previously when the duration of the hyperglycemia was greater than the 3-week experiment described herein).

[8] = Solubility in aqueous solutions; type: physicochemical
[9] = target: MMP-9 (human leukocyte gelatinase) (Homo sapiens (Human), UniProt P14780); experiment: MMP-9 inhibition in vitro, octapeptide/HPLC; type: biochemical
[10] = target: MMP-2 (Rattus norvegicus (Rat), UniProt P33436); experiment: Skin MMP-2 by ELISA in diabetic rats; type: in vivo; conditions: both low and high doses
Protocol: as §1

[11] = system: neonatal rat ventricular myocytes; experiment: Hydrogen peroxide induced LDH release; type: cell-based; conditions: H2O2 100 μM, compound 10 μM
Protocol: Neonatal rat ventricular myocytes, serum starved for 24 h, were treated with the inhibitors 1 h prior to the addition of 100 μM of hydrogen peroxide (Sigma). LDH release in the conditioned media was quantified using CytoTox-ONE Homogeneous Membrane Integrity Assay reagent (Promega) at the indicated time points.

[12] = Hyperglycemia in streptozotocin-diabetic rats, 1-week oral treatment; type: in vivo, rat; conditions: 100 mg/kg oral once/day for 7 days
Excerpt: The purpose of the following was to establish an in vivo model of excessive collagen degradation to be used to test efficacy of the compounds of the subject invention. Male Sprague-Dawley rats (typically 300-400 gms of body weight), specific viral antibody free, were ordered from Charles River. Following general anesthesia via isoflurane anesthetic inhalation, diabetes was induced by an I.V. administration of streptozotocin (STZ) (50* mg/kg body weight) (Sigma Chemical Co., St Louis, Mo., USA) diluted in 0.9% citrated saline (pH 4.5), after 12 hours of fasting. After the streptozotocin injection, the animals were given free access to water and food. […] In this test, the test-paper color changes to dark brown which indicates glycosuria.
The latter assays were carried out using Western blot analysis with monoclonal antibodies to MMP-8.

[13] = system: LPS-challenged human monocytes; experiment: Cytokine and growth factor levels in LPS-challenged human monocytes (Luminex multiplex); type: cell-based; conditions: 2 μM
Protocol: The cytokine levels were measured by Luminex multiplex, a method that allows the simultaneous measurement of different biological markers.

[14] = system: TNF-α; experiment: TNF-α production by LPS-stimulated human monocytes (ELISA); type: cell-based; conditions: 10 and 20 μM
Protocol: Briefly, human peripheral blood monocytes (HMs) were isolated from a leukocyte concentrate by density gradient centrifugation (Lymphoprep) and the isolated HMs cultured (2 h, 37° C.) to remove non-adherant cells. The adherent HMs were cultured for 18 h (1×10^6 cells/well, 24-well plates)±endotoxin (LPS)±different compounds dissolved in DMSO (the final concentration of DMSO in the RPMI serum-free culture media with Pen./Strep, antibiotics was no greater than 0.5%). After incubation, the proinflammatory cytokines, TNFα, IL-1β, MCP-1 and IL-6 were measured in the conditioned media by ELISA and cytotoxicity was assessed by measuring the absorbance (490 ran) of formazan produced by reduction of MTS. The HMs alone ±0.1-0.5% DMSO produced minimal levels of these pro-inflammatory cytokines. However, addition of 100 ng/ml or 10 μg/ml of LPS both dramatically stimulated cytokine production.

Sequence of MMP-9 (human leukocyte gelatinase) (P14780 94-707): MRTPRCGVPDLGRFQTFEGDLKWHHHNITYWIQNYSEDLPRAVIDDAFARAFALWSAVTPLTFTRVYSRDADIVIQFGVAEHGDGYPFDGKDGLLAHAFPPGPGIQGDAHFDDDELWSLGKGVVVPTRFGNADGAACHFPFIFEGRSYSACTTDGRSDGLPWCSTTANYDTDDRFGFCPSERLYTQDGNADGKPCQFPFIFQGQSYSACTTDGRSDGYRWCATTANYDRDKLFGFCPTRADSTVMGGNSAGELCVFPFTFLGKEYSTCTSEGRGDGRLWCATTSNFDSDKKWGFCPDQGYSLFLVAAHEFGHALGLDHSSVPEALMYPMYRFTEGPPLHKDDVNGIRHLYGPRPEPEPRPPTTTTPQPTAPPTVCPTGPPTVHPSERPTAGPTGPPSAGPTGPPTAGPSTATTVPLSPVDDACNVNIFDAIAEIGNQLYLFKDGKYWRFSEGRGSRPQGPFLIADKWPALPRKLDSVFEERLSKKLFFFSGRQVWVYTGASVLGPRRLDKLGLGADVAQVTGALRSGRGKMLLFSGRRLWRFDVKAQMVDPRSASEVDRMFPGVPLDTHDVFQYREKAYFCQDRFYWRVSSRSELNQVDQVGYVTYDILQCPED
Sequence of purified human PMN MMP-8 (P22894 101-467): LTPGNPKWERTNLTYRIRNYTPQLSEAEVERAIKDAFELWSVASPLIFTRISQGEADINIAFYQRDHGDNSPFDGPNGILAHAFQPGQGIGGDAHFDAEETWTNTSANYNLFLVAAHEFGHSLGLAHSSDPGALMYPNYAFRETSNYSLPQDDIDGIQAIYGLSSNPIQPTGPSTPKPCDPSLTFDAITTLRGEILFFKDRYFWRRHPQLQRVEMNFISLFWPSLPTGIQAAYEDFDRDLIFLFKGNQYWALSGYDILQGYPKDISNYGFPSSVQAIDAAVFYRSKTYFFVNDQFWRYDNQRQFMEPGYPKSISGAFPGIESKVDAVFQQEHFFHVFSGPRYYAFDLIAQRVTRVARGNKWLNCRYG

For `c1cnc2c(c1)ccc1cccnc12` [1,10-phenanthroline, 1,10-O-phenanthroline], the IC50 ([1]; read-out: IC50 against purified hMMP-8) was 10 µM and 35 µM.

In the case of `COC(=O)C(C(=O)/C=C/c1ccc(O)c(OC)c1)C(=O)/C=C/c1ccc(O)c(OC)c1` [Compound 1, 1,7-Bis(4-hydroxy-3-methoxyphenyl)-4-methoxycarbonylhepta-1E,6E-dien-3,5-dione], the “Modulation of doxorubicin mediated caspase-3 activity” value [2] is reported as “None of the MMP inhibitors, including compound 1, negatively modulate caspase-3 activity”, the “Reduction of IL-1β in gingiva vs untreated diabetic” value [3] is reported as “about 18%” and the “Cytotoxicity Monocytes @ 5 h incubation” value ([4]; 2 uM) is reported as 2 uM- 0%. For the same compound, the “Cytotoxicity Monocytes @ 5 h incubation” value ([4]; 10 uM) was 10 uM- 0%, the “Description of AEs” value [5] was “Minor inflamed sclera” and the “Incidence of Adverse Events (AEs)” value [5] was 1/6. The “Production and/or activity of MMP-9” value [6] was “inhibited the production and/or activity of MMP-9”, the “Reduction in alveolar bone loss vs untreated groups” value [7] was “less effective” and the Solubility [8] was “more soluble than the insoluble natural product curcumin”. The IC50 [9] was 6 to 17 µM, the “Reduction of elevated MMP-2 level in skin” value [10] was 28% and the “Effect on LDH release” value ([11]; 24 h) was “less dramatic effect”. The “Effect on severity of hyperglycemia (serum glucose)” value [12] was “no effect” and the “Reduction of MCP-1, TNFα and VEGF levels” value [13] was “potent in reducing”.

In the case of `COC(=O)C(C(=O)/C=C/c1ccc(O)cc1)C(=O)/C=C/c1ccc(O)cc1` [Compound 3, 1,7-Bis(4-hydroxyphenyl)-4-methoxycarbonylhepta-1E,6E-dien-3,5-dione], the Solubility [8] is reported as “more soluble in aqueous solutions than compound 1”, the IC50 [9] is reported as 6 to 17 µM and the “IC50 collagenase (MMP-8) activity” value ([1]; Example 7 experiment, 37° C., 1 mM Ca++) is reported as “more potent as a collagenase or MMP inhibitor than compound 1”.

Compound `COc1cc(/C=C/C(=O)CC(=O)/C=C/c2ccc(N(C)C)cc2)ccc1O` [Compound 4] has an IC50 [9] of 6 to 17 µM.

In the case of `COc1cc(/C=C/C(=O)CC(=O)/C=C/c2ccc(O)c(OC)c2)ccc1O` [Curcumin, diferuloylmethane], the “Effect on TNFα production by endotoxin-stimulated human monocytes” value [14] is reported as “no effect”, the “Cytotoxicity Monocytes @ 5 h incubation” value ([4]; 10 uM) is reported as 10 uM- 0% and the “Cytotoxicity Monocytes @ 18 h incubation” value ([4]; 10 uM, 18 h) is reported as 10 uM- 0%. For the same compound, the “Cytotoxicity associated with TNFα inhibitory effect” value ([4]; 50 and 100 μM, some precipitation in cell culture) was “significant cytotoxicity” and the Solubility [8] was “insoluble”.

For `CNC(=O)[C@H](Cc1c[nH]c2ccccc12)NC(=O)[C@@H](CC(=O)NO)CC(C)C` [GM-6001], the “Effect on LDH release” value [11] was “did not affect LDH release”.

For `CCOCOC[C@H](C[C@H](C)C(=O)NO)NC(=O)c1ccc(Oc2ccccc2)cc1` [ONO-4817], the “Effect on LDH release” value [11] was “did not affect LDH release”.
